This is an account of results in paper PMC12113998, “Exploring Multivalent Architectures for Binding and Stabilization of N-Acetylgalactosamine 6-Sulfatase” (Molecules, 2025).

Values joined by “and” are separate entries in the source; they are usually repeats but may differ in a detail not shown here. Equal values may be shown once. Marks after values point to notes of the source that are not given here.

Assay [1] addresses T1, N-acetylgalactosamine-6-sulfatase (GALNS) (Homo sapiens, UniProt P34059).
T1 construct: Isolated leukocytes were disrupted by sonication; from tissue; host or cells: human leukocytes from healthy donors (sonicated homogenate)
T1 sequence (P34059 27-522): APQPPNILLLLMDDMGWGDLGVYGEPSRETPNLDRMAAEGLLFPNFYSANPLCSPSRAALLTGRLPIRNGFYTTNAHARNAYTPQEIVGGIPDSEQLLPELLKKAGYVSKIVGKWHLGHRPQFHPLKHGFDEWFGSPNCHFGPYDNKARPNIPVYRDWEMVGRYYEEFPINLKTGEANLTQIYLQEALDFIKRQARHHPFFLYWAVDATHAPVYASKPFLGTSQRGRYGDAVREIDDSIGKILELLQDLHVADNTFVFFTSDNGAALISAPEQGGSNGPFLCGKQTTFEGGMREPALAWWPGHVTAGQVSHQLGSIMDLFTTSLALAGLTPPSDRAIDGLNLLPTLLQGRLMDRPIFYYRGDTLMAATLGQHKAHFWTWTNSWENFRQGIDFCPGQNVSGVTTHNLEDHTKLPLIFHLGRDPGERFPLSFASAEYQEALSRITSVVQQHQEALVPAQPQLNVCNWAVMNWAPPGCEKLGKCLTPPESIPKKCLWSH
Also on record: method as in doi:10.1039/C6RA15806D. The following applies: cited from earlier work.

Assay [2] deals with T2, recombinant human GALNS (rhGALNS VIMIZIM®) (Homo sapiens, UniProt P34059).
T2 construct: purchased BioMarin (VIMIZIM, elosulfase alfa)
T2 sequence (P34059 27-522): T1 sequence (P34059 27-522)
In words: IC50 on recombinant human GALNS (rhGALNS VIMIZIM). Type of assay: biochemical. Here is the method: (§1) The promising IC50 values observed for 1 and 36 prompted us to assess their effects on the commercially available wild-type recombinant GALNS (rhGALNS VIMIZIM®). […] Building on these findings, we investigated the potential stabilizing effect of these compounds on the tertiary structure of GALNS through a thermal denaturation study. rhGALNS was preincubated with varying concentrations of the compounds before being subjected to heating at 48 °C for 40 and 60 min. The relative enzyme activity was expressed as the ratio between the activity measured after thermal denaturation at 48 °C and that obtained under physiological conditions at 37 °C.
The IC 50 values of inhibitors against human GALNS in leukocytes isolated from healthy donors or against recombinant human GALNS (rhGALNS VIMIZIM®) were determined by measuring the initial hydrolysis rate with 4 -methylumbelliferyl-β-galactoside-6-sulfate.Na (6.66 mM) at different concentrations of inhibitors.
Data obtained were fitted to the following equation using the OriginPro 2021 (Version 2021. OriginLab Corporation, Northampton, MA, USA): where Vi/Vo, represent the ratio between the activity measured in the presence of the inhibitor (Vi) and the activity of the control without the inhibitor (Vo), “x” the inhibitor concentration, Max and Min, the maximal and minimal enzymatic activity observed, respectively. […]

Another assay has as its target T3, rhGALNS VIMIZIM® (Homo sapiens, UniProt P34059).
T3 construct: purchased BioMarin (VIMIZIM, elosulfase alfa)
T3 sequence (P34059 27-522): T1 sequence (P34059 27-522)
Kind of assay: Stabilization of rhGALNS under thermal denaturation (48 °C, 40 and 60 min). Format: biochemical. As for the experimental part: as §1
Figure 3 Stabilization of rhGALNS VIMIZIM® in the presence of 1 (A) and 36 (B) was evaluated in vitro by using heat inactivation. Relative enzymatic activity after thermal treatment (48 °C) for 40 and 60 min at the indicated inhibitor concentrations (μM) with respect to the corresponding assay at 37 °C (no denaturation). Data for control were obtained as above except that no inhibitor was present. Experiments were performed in triplicate (see Supporting Information). […]
The thermal stability induced by 1 and 36 against rhGALNS VIMIZIM® was determined by measuring the hydrolysis rate with 4-methylumbelliferyl-β-galactoside-6-sulfate.Na (6.66 mM) after denaturation of enzyme at 48 °C for 40 minutes or 60 minutes with or without (Ctrl) different concentrations of compounds. […]
After incubation 20 µL of 4-methylumbelliferyl-β-galactoside-6-sulfate.Na substrate solution in Na-Acetate/acetic acid buffer (0.1 M/0.1 M, pH 4.3) containing 0.1 M NaCl, 0.02% (w/v) NaN3 and 5 mM Pb-acetate was added. […] Fluorescence was measured in a SpectraMax M2 microplate reader (Molecular-Devices) using a 365 nm excitation wavelength and a 435 nm emission wavelength. […]
Figure S57. Activity of rhGALNS VIMIZIM® was determined after incubation for 0 minutes or 40 minutes or 60 minutes at 48 °C with or without (Ctrl) different concentrations of 1 by measuring the hydrolysis rate 4-methylumbelliferyl-β-galactoside-6-sulfate.Na. […]

As a reminder, the IC50 is the concentration that inhibits the measured activity by half. As to `O=C(NC(COCc1cn(CCCCCCN2CC(O)C(O)C2CO)nn1)(COCc1cn(CCCCCCN2CC(O)C(O)C2CO)nn1)COCc1cn(CCCCCCN2CC(O)C(O)C2CO)nn1)c1cc(C(=O)NC(COCc2cn(CCCCCCN3CC(O)C(O)C3CO)nn2)(COCc2cn(CCCCCCN3CC(O)C(O)C3CO)nn2)COCc2cn(CCCCCCN3CC(O)C(O)C3CO)nn2)cc(C(=O)NC(COCc2cn(CCCCCCN3CC(O)C(O)C3CO)nn2)(COCc2cn(CCCCCCN3CC(O)C(O)C3CO)nn2)COCc2cn(CCCCCCN3CC(O)C(O)C3CO)nn2)c1` (centres unmarked) [Compound 1], in assay [1] (1 mM inhibitor, human leukocyte extracts), the “% Inhibition (1 mM)” value was 94 ^[a] %. Further, the IC50 in assay [1] (human leukocyte extracts) is 47 ± 5 µM; in assay [2], 110 µM. Also, in assay [1] (positive MVE as previously reported), the rp/n was 9.2 and 6.5–9.2. The “enzyme activity with respect to the control after thermal denaturation” value at rhGALNS VIMIZIM® (500 µM compound, both time points (40 and 60 min)) is recorded as “around two-fold”.
For the molecule `OCC1C(O)C(O)CN1CCCCCCn1cc(COCC(COCc2cn(CCCCCCN3CC(O)C(O)C3CO)nn2)(COCc2cn(CCCCCCN3CC(O)C(O)C3CO)nn2)NCc2cc(CNC(COCc3cn(CCCCCCN4CC(O)C(O)C4CO)nn3)(COCc3cn(CCCCCCN4CC(O)C(O)C4CO)nn3)COCc3cn(CCCCCCN4CC(O)C(O)C4CO)nn3)cc(CNC(COCc3cn(CCCCCCN4CC(O)C(O)C4CO)nn3)(COCc3cn(CCCCCCN4CC(O)C(O)C4CO)nn3)COCc3cn(CCCCCCN4CC(O)C(O)C4CO)nn3)c2)nn1` (centres unmarked) [Compound 36], the IC50 in assay [2] stood at 30 µM. In addition, the “enzyme activity with respect to the control after thermal denaturation” value is 1.3 fold on rhGALNS VIMIZIM® (30 µM compound, 40 min) and 2.4 fold on rhGALNS VIMIZIM® (30 µM compound, 60 min).
